Source: patent publication US5380825A (Sigma Chemical Company, priority 1991, dated 1995)
In brackets after ≈: the same amount, converted by molar mass.

Assays:
AZT antibodies [1] = experiment: Immunological activity / tracer performance in FPIA for AZT (qualitative); type: binding; conditions: qualitative
Procedure: (§1) An equal volume of precipitation reagent was added per microcentrifuge tube. The tubes were centrifuged at greater than 9,000×g for 1 minute.
(§2) (2) A 17.5 ul sample of each serum extract was brought to approximately pH 7-8 by the addition of buffer.
(§3) (4) After an appropriate incubation time, the polarization of each reaction mixture was determined using a polarization spectrofluorimeter.

antibody to AZT = experiment: Nephelometric inhibition immunoassay (NIA) for AZT; type: binding; conditions: qualitative
Procedure: Typically this conjugate is prepared from a high molecular weight carrier such as horse apoferritin or serum proteins.

Solubility in water = type: physicochemical; conditions: UV, assuming E^M275 = 8600, read-out: concentration of saturated aqueous solution
Procedure: A mixture of 25 mg AZT-3-AA (Example 19), 15 mg NOS and 15 mg DCC in 1 ml of THF was stirred two hours at room temperature, then a solution of 25 mg TME in 500 ul of THF/MeOH (9+1) was added and the mixture was stirred overnight at room temperature. The suspension was filtered through a PTFE membrane to remove dicyclohexylurea and chromatographed by TLC on silica gel-F 250 um using the solvent system CHCl3 /MeOH/HOAc (90+10+1). Three major UV-absorbing bands were located: TME, Rf =0.13, ninhydrin positive, Pauly positive, migrates with TME reference; NOS, Rf =0.33, ninhydrin negative, Pauly negative, migrates with NOS reference; and product, Rf =0.40, ninhydrin negative, Pauly positive. The band corresponding to the product was scraped, eluted with MeOH and rechromatographed on RPF 250 um using the solvent system MeOH/H2 O/HOAc (33+66+2) to remove a trace of NOS. In this second chromatography system, Rf =0.42 (product) and Rf =0.81 (NOS). The product was eluted with MeOH/THF (1+1). A saturated aqueous solution was prepared and filtered through a PTFE membrane and stored at -20° C. The saturated aqueous solution was characterized by a UV wavelength scan and concentration of the solute was calculated to be 47 ug/ml, assuming E^M275 =8600.

[2] = major metabolite of AZT; cited from earlier work
[3] = tested on: antisera to AZT, Rabbit 1 (immunized with AZT-3-V:BSA); experiment: FPIA comparison of tracers, antiserum of Rabbit 1 (Table 1); type: binding; conditions: for Polarization Units (P × 1000): 1 pmole of tracer, antiserum at the given titer; for ED50 AZT: concentration of AZT giving 50% reduction in polarization of this tracer relative to 0 tube; for Titer [Ab]: dilution of antiserum required to obtain the given polarization units with 1 pmole of tracer
Procedure: (§4) The immunogen (1 mg in 1 ml) was emulsified with an equal volume of Freund's Complete Adjuvant and injected intradermally into each of two female albino rabbits. The process was repeated in two weeks. Two weeks later, monthly subcutaneous booster injections were begun with 0.5 mg in 0.5 ml of the immunogen and 0.5 ml of Freund's Incomplete Adjuvant per animal. The rabbits were bled biweekly by a marginal ear vein technique beginning six weeks after the primary immunization. The blood collected was refrigerated, allowing clots to form, and the supernatant (antiserum) retained. The antiserum from each rabbit was collected and stored, either at -20° C. without preservative, or at 4° C. after addition of sodium azide to a final concentration of 0.1%. The same schedule was followed for each immunogen. Rabbits immunized produced antibodies to AZT.
(§5) Fluorescence Polarization Immunoassay for AZT
as §1, §2, §3
(§6) As further illustration of the invention polyclonal antibodies were raised in two rabbits by immunization with the conjugate of Example 4 (AZT-3-V:BSA) as is more fully described in Example 45 and stored at 4° C. with 0.1% sodium azide. A number of tracers were then compared as to their performance in FPIA using the antisera raised from two rabbits.
(§7) ^(1) TITER was defined as the dilution of antiserum (i.e., [Ab])
(§8) required to obtain the given polarization units (P × 1000) with 1
(§9) required to give a 50% reduction in polarization relative to a control (0
(§10) tube) containing no unlabeled AZT.

[4] = tested on: antisera to AZT, Rabbit 2 (immunized with AZT-3-V:BSA); experiment: FPIA comparison of tracers, antiserum of Rabbit 2 (Table 1); type: binding; conditions: for Polarization Units (P × 1000): 1 pmole of tracer, antiserum at the given titer; for ED50 AZT: concentration of AZT giving 50% reduction in polarization of this tracer relative to 0 tube; for Titer [Ab]: dilution of antiserum required to obtain the given polarization units with 1 pmole of tracer
Procedure: as §4, §5, §1, §2, §3, §6, §7, §8, §9, §10

AZT antibodies [5] = experiment: Fluorescence quenching technique for assaying AZT; type: binding; conditions: qualitative
Text: Fluorescence quenching and fluorescence enhancement immunoassays are other homogeneous fluorescent assays based on the observation that some antibodies, upon binding to a fluorescent molecule, cause either an enhancement or decrease in fluorescence.

| Compound | immunological activity in FPIA for AZT (AZT antibodies [1]) | immunological activity in NIA for AZT (antibody to AZT) | Polarization Units (P × 1000) [3] | ED50 AZT [3] | Titer [Ab] [3] | Polarization Units (P × 1000) [4] | ED50 AZT [4] | Titer [Ab] [4] | other results |
| --- | --- | --- | --- | --- | --- | --- | --- | --- | --- |
| COC(=O)C(Cc1ccc(O)cc1)NC(=O)CCC(=O)OC[C@H]1O[C@@H](n2cc(C)c(=O)[nH]c2=O)C[C@@H]1N=[N+]=[N-] (stereo partly drawn) [Example 43, 2-[(3'-azido-3'-deoxythymid-5'-yl)-succinamido]-3-(4-hydroxyphenyl)-propionic acid methyl ester] | immunologically active | immunologically active |  |  |  |  |  |  |  |
| COC(=O)C(Cc1ccc(O)cc1)NC(=O)Cn1c(=O)c(C)cn([C@H]2C[C@H](N=[N+]=[N-])[C@@H](CO)O2)c1=O (stereo partly drawn) [Example 24, 2-[2-(3'-azido-3'-deoxythymid-3-yl)-acetamido]-3-(4-hydroxyphenyl)-propionic acid methyl ester] | immunologically active | immunologically active |  |  |  |  |  |  | solubility (Solubility in water): 47 µg/mL (≈ 93.5 µM) |
| Cc1cn([C@H]2C[C@H](N=[N+]=[N-])[C@@H](CO[C@@H]3O[C@H](C(=O)O)[C@@H](O)[C@H](O)[C@H]3O)O2)c(=O)[nH]c1=O [AZT-5'-glucuronide] |  |  |  |  |  |  |  |  | pharmacological activity [2]: believed to be pharmacologically inactive |
| COc1nc(NCCCn2c(=O)c(C)cn([C@H]3C[C@H](N=[N+]=[N-])[C@@H](CO)O3)c2=O)nc(Nc2ccc3c(c2)C(=O)OC32c3ccc(O)cc3Oc3cc(O)ccc32)n1 [Example 32, 3-[3-[4-(fluoresceinyl-5)-6-methoxy-s-triazin-2-yl]-aminopropyl]-3'-azido-3'-deoxythymidine] |  |  | 179 P × 1000 | 3.1 µg/mL (≈ 3.98 µM) | 550 | 170 P × 1000 | ~ 8.0 ug/ml | 183 | performance as tracer for determination of AZT by FPIA (AZT antibodies [1]): satisfactory tracer |
| Cc1cn([C@H]2C[C@H](N=[N+]=[N-])[C@@H](CO)O2)c(=O)n(CCCC(=O)NCCNC(=S)Nc2ccc3c(c2)C(=O)OC32c3ccc(O)cc3Oc3cc(O)ccc32)c1=O [Example 15, 5-[[4-(3'-azido-3'-deoxythymid-3-yl)-butyramido]-ethylthiocarbamyl]-fluorescein] | Immunological activity against AZT was confirmed |  | 165 P × 1000 | 4.0 µg/mL (≈ 5.1 µM) | 200 | 184 P × 1000 | 4.0 µg/mL (≈ 5.1 µM) | 73 |  |
| Cc1cn([C@H]2C[C@H](N=[N+]=[N-])[C@@H](COC(=O)CCC(=O)Nc3ccc4c(c3)C(=O)OC43c4ccc(O)cc4Oc4cc(O)ccc43)O2)c(=O)[nH]c1=O [Example 41, 5-[(3'-azido-3'-deoxythymid-5'-yl)-succinamido]-fluorescein] |  |  |  |  |  |  |  |  | immunoactivity by fluorescence quenching technique (AZT antibodies [5]): Immunoactivity of the product was demonstrated |
